What was measured:
[1] = In vitro stability (enantiomerization, D/H exchange) in C57BL/6 mouse plasma at 37° C.; type: in vitro ADME; details: up to 32 h
Method: (§1) The plasma samples were incubated at 37° C. in duplicate (anticoagulant: K3EDTA). […] Samples were placed at −80° C. until the study was complete. […] The vortexed samples were centrifuged and 50 μL of supernatant was dispensed in a 96-well plate.
(§2) The deuterium in both enantiomers, d-S and d-R, can be lost by D/H exchange to give both protonated enantiomers, h-S and h-R with rate constants kDRR, kDRS, kDSR, and kDSS. At the same time, the protonated enantiomers h-S and h-R can exchange with enantiomerization rate constants kRS and kSR. All four compounds can also degrade with potentially different degradation rate constants kdSd, kdRd, khSd, and khRd.
(§3) Human and mouse plasma data were analyzed independently. […] Data in each species was analyzed using a stepwise approach.
(§4) The step between calculated time points was minimized in order to minimize the local error (proportional to the square of the step size) and the global error (proportional to the step size).

[2] = tested on: C2C12 cells; details: 30 μM for 15, 30, or 90 min; 10 mM sodium pyruvate
Method: On the day before the assay, C2C12 cells were subcultured in XF96 microplates at a density of 20,000 cells per well. After overnight incubation (37° C., 5% CO2), the cells were washed 3 times with assay medium (Seahorse medium (Seahorse Bioscience, North Billerica, Mass.) containing 10 mM sodium pyruvate, pH 7.4). […] Incubation times of 15, 30, or 90 min were used prior to measurement of maximal respiration, i.e., until addition of FCCP. […] Maximal respiration as oxygen consumption rates (pmoles O2/min) was measured for each compound, at each concentration, and each time point in three separate experiments.

[3] = In vitro plasma stability, half-life of deuterated vs. protonated enantiomers (plasma species not given); type: in vitro ADME; details: 37° C., t1/2=ln(2)/k from fitted rate constants
Method: as §1, §2, §3, §4

[4] = In vitro stability (enantiomerization, D/H exchange) in human plasma at 37° C.; type: in vitro ADME; details: up to 32 h
Method: as §1, §2, §3, §4

[5] = target: T1, human recombinant monoamine oxidase B (Homo sapiens, UniProt P27338); experiment: Monoamine oxidase B (MAO-B) inhibition, luminescence assay; type: biochemical
T1 sequence (P27338 1-520): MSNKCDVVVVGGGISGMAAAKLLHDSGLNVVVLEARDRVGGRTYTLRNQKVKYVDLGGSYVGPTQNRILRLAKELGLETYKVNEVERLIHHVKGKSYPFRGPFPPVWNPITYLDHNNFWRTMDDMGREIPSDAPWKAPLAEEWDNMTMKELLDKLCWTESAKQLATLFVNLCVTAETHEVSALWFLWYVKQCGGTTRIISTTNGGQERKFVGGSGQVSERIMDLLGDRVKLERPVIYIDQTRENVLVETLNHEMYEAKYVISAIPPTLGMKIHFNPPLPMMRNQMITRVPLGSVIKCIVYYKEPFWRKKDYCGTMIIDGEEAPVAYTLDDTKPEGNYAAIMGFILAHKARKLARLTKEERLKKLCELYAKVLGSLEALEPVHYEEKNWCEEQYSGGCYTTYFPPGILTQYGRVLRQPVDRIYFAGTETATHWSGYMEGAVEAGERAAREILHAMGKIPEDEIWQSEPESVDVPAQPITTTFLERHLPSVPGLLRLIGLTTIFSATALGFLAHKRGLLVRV
Method: The mixtures were incubated at 22° C. for 5 min. Substrate (D-luciferin derivative) was added, and then the mixture was incubated at 37° C. for 60 min. The reaction was stopped by addition of the detection reagent containing luciferase. Luminescence was read after standing for 60 min at room temperature.
Results were expressed as a percentage of the luminescence of the control (enzyme+substrate). IC50 values were obtained by fitting experimental data (mean % luminescence as function of concentration) to the Hill equation with variable slope using non-linear regression analysis.

degradation (sum of peak areas vs. incubation time) [1] | degradation (sum of peak areas vs. incubation time) [4] | difference in inhibition efficacy between d-R-pio and d-S-pio [5] | SMILES | maximal respiration as oxygen consumption rate (OCR) vs. vehicle-treated cells [2] | half-life of deuterated enantiomer vs. corresponding protonated enantiomer [3]
negligible | negligible |  | CCc1ccc(CCOc2ccc(C[C@@H]3SC(=O)NC3=O)cc2)nc1 [h-S-pio, (S)-5-({p-[2-(5-ethyl-2-pyridyl)ethoxy]phenyl}methyl)-1,3-thiazolidine-2,4-dione, reference compound] |  | 
negligible | negligible |  | CCc1ccc(CCOc2ccc(C[C@H]3SC(=O)NC3=O)cc2)nc1 [h-R-pio, (R)-5-({p-[2-(5-ethyl-2-pyridyl)ethoxy]phenyl}methyl)-1,3-thiazolidine-2,4-dione, reference compound] |  | 

The remaining lines, values behind:

SMILES | degradation (sum of peak areas vs. incubation time) [1] | degradation (sum of peak areas vs. incubation time) [4] | difference in inhibition efficacy between d-R-pio and d-S-pio [5] | maximal respiration as oxygen consumption rate (OCR) vs. vehicle-treated cells [2] | half-life of deuterated enantiomer vs. corresponding protonated enantiomer [3]
[2H][C@@]1(Cc2ccc(OCCc3ccc(CC)cn3)cc2)SC(=O)NC1=O [d-S-pio, (S)-5-({p-[2-(5-Ethyl-2-pyridyl)ethoxy]phenyl}methyl)-(5-^2H)-1,3-thiazolidine-2,4-dione] | negligible | negligible |  | no significant measurable effect | approximately the same as the half-life for h-S-pio
CCc1ccc(CCOc2ccc(CC3SC(=O)NC3=O)cc2)nc1 (racemic) [h-rac-pio, rac-5-({p-[2-(5-Ethyl-2-pyridyl)ethoxy]phenyl}methyl)-1,3-thiazolidine-2,4-dione, reference compound] |  |  |  | inhibited maximal respiration | 
[2H][C@]1(Cc2ccc(OCCc3ccc(CC)cn3)cc2)SC(=O)NC1=O [d-R-pio, (R)-5-({p-[2-(5-Ethyl-2-pyridyl)ethoxy]phenyl}methyl)-(5-^2H)-1,3-thiazolidine-2,4-dione] | negligible | negligible | greater than 5 fold | inhibited maximal respiration | approximately two-fold
